Where two headings read alike, the source gives them in different places.
Tests used:
AsPC-1 (K-Ras G12D) = assay: Potency assay: pERK; format: cell-based, human; conditions: Homo sapiens, ASPC1; AsPC-1 KRAS G12D; read-out: pERK EC50
Description: The purpose of this assay is to measure the ability of test compounds to inhibit K-Ras in cells. […] This procedure measures a decrease in cellular pERK in response to test compounds. The procedure described below in NCI-H358 cells is applicable to K-Ras G12C.
NCI-H358 cells were grown and maintained using media and procedures recommended by the ATCC. On the day prior to compound addition, cells were plated in 384-well cell culture plates (40 μl/well) and grown overnight in a 37° C., 5% CO2 incubator. Test compounds were prepared in 10, 3-fold dilutions in DMSO, with a high concentration of 10 mM. On the day of assay, 40 nL of test compound was added to each well of cell culture plate using an Echo550 liquid handler (LabCyte®). Concentrations of test compound were tested in duplicate. After compound addition, cells were incubated 4 hours at 37° C., 5% CO2. Following incubation, culture medium was removed and cells were washed once with phosphate buffered saline.
In some experiments, cellular pERK level was determined using the AlphaLISA SureFire Ultra p-ERK1/2 Assay Kit (PerkinElmer). Cells were lysed in 25 μL lysis buffer, with shaking at 600 RPM at room temperature. Lysate (10 μL) was transferred to a 384-well Opti-plate (PerkinElmer) and 5 μL acceptor mix was added. After a 2-hour incubation in the dark, 5 μL donor mix was added, plate was sealed, and incubated 2 hours at room temperature. Signal was read on an Envision plate reader (PerkinElmer) using standard AlphaLISA settings. Analysis of raw data was carried out in Excel (Microsoft) and Prism (GraphPad). Signal was plotted vs. the decadal logarithm of compound concentration, and IC50 was determined by fitting a 4-parameter sigmoidal concentration response model.
In other experiments, cellular pERK was determined by In-Cell Western. Following compound treatment, cells were washed twice with 200 μL tris buffered saline (TBS) and fixed for 15 minutes with 150 μL 4% paraformaldehyde in TBS. Fixed cells were washed 4 times for 5 minutes with TBS containing 0.1% Triton X-100 (TBST) and then blocked with 100 μL Odyssey blocking buffer (LI-COR) for 60 minutes at room temperature. Primary antibody (PERK, CST-4370, Cell Signaling Technology) was diluted 1:200 in blocking buffer, and 50 μL was added to each well and incubated overnight at 4° C. Cells were washed 4 times for 5 minutes with TBST. Secondary antibody (IR-800CW rabbit, LI-COR, diluted 1:800) and DNA stain DRAQ5 (LI-COR, diluted 1:2000) were added and incubated 1-2 hours at room temperature. Cells were washed 4 times for 5 minutes with TBST. Plates were scanned on a Li—COR Odyssey CLx Imager. Analysis of raw data was carried out in Excel (Microsoft) and Prism (GraphPad). Signal was plotted vs. the decadal logarithm of compound concentration, and IC50 was determined by fitting a 4-parameter sigmoidal concentration response model.

NRAS Q61R = NRAS Q61R (Homo sapiens (Human), UniProt P01111+P62937, Q61R); assay: Ras-Raf disruption/FRET/MOA assay (BRAF RBD, Cyclophilin A); format: biochemical
NRAS Q61R, sequence (P01111 whole entry Q61R): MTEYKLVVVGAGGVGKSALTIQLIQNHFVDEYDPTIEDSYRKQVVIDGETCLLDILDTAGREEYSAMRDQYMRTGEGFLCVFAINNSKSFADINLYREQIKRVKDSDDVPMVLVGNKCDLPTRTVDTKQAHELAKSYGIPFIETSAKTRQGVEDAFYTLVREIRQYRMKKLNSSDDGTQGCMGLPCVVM
NRAS Q61R, sequence (P62937 whole entry): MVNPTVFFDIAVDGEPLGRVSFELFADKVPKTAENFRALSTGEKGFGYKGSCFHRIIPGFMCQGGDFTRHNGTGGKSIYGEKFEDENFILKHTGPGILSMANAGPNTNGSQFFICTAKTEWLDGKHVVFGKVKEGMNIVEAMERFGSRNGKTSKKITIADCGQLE
Outline: (§1)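 25 μM tagless Cyclophilin A, 12.5 nM His6-Ras-GMPPNP and 50 nM GST-BRAF RBD in HEPES pH 7.3 buffer with 5 mM MgCl2, with compound (10-point 3-fold series from 30 μM final) for 3 h at 25 °C. Anti-His Eu and anti-GST APC then added for 1.5 h. IC50 from TR-FRET ratio decrease versus DMSO.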

KRAS Q61H = KRAS Q61H (Homo sapiens (Human), UniProt P01116+P62937, Q61H); assay: as above; format: biochemical
KRAS Q61H, sequence (P01116 other isoform, or with tags, fused parts or gaps Q61H): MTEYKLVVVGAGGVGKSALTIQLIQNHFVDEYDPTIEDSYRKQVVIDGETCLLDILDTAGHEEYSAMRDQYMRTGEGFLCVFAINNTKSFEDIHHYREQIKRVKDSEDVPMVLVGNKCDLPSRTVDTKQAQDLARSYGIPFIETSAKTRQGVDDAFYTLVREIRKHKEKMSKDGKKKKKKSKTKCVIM
KRAS Q61H, sequence (P62937 whole entry): as the sequence (P62937 whole entry) above
Outline: as §1

KRAS G12D = KRAS G12D (Homo sapiens (Human), UniProt P01116+P62937, G12D); assay: as above; format: biochemical; conditions: read-out: KRAS G12D FRET IC50
KRAS G12D, sequence (P01116 other isoform, or with tags, fused parts or gaps G12D): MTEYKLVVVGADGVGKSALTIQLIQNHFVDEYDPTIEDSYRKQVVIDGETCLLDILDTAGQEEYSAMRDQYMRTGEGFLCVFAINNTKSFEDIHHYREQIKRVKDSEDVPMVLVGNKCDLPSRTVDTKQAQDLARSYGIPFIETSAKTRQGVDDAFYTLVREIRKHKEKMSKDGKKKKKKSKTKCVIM
KRAS G12D, sequence (P62937 whole entry): as the sequence (P62937 whole entry) above
Outline: as §1

KRAS G12V = KRAS G12V (Homo sapiens (Human), UniProt P01116+P62937, G12V); assay: as above; format: biochemical; conditions: read-out: KRAS G12V FRET IC50
KRAS G12V, sequence (P01116 other isoform, or with tags, fused parts or gaps G12V): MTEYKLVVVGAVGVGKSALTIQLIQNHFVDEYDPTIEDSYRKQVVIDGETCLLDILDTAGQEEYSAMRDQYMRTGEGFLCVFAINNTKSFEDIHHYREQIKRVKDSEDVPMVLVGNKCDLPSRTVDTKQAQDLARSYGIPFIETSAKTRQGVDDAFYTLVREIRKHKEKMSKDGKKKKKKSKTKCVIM
KRAS G12V, sequence (P62937 whole entry): as the sequence (P62937 whole entry) above
Outline: as §1

NRAS G12C = NRAS G12C (Homo sapiens (Human), UniProt P01111+P62937, G12C); assay: as above; format: biochemical; conditions: read-out: NRAS G12C FRET data IC50
NRAS G12C, sequence (P01111 whole entry G12C): as the sequence (P01111 whole entry Q61R) above, with G12C, R61Q counted along it
NRAS G12C, sequence (P62937 whole entry): as the sequence (P62937 whole entry) above
Outline: as §1

NRAS WT = NRAS WT (Homo sapiens (Human), UniProt P01111+P62937); assay: as above; format: biochemical
NRAS WT, sequence (P01111 whole entry): as the sequence (P01111 whole entry Q61R) above, with R61Q counted along it
NRAS WT, sequence (P62937 whole entry): as the sequence (P62937 whole entry) above
Outline: as §1

KRAS G12S = KRAS G12S (Homo sapiens (Human), UniProt P01116+P62937, G12S); assay: as above; format: biochemical; conditions: read-out: KRAS G12S FRET IC50
KRAS G12S, sequence (P01116 other isoform, or with tags, fused parts or gaps G12S): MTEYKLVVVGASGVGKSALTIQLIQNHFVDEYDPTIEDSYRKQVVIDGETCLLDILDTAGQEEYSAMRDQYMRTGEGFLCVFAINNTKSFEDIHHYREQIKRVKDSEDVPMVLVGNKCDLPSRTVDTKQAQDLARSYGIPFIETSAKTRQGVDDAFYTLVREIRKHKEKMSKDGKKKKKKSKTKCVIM
KRAS G12S, sequence (P62937 whole entry): as the sequence (P62937 whole entry) above
Outline: as §1

KRAS G13C = KRAS G13C (Homo sapiens (Human), UniProt P01116+P62937, G13C); assay: as above; format: biochemical; conditions: read-out: KRAS G13C FRET IC50
KRAS G13C, sequence (P01116 other isoform, or with tags, fused parts or gaps G13C): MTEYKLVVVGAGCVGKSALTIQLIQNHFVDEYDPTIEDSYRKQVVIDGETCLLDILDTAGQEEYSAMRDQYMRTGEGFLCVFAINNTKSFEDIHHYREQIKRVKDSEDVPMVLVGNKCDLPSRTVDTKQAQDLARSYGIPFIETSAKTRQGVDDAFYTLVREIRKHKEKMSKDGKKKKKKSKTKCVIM
KRAS G13C, sequence (P62937 whole entry): as the sequence (P62937 whole entry) above
Outline: as §1

KRAS WT = KRAS WT (Homo sapiens (Human), UniProt P01116+P62937); assay: as above; format: biochemical; conditions: read-out: KRAS WT FRET data IC50
KRAS WT, sequence (P01116 other isoform, or with tags, fused parts or gaps): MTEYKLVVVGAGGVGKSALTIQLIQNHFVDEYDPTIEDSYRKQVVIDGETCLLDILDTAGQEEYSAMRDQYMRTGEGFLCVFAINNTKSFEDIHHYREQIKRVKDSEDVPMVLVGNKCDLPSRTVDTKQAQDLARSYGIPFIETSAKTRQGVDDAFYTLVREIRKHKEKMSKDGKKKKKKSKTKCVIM
KRAS WT, sequence (P62937 whole entry): as the sequence (P62937 whole entry) above
Outline: as §1

KRAS G12C = KRAS G12C (Homo sapiens (Human), UniProt P01116+P62937, G12C); assay: as above; format: biochemical; conditions: read-out: KRAS G12C FRET IC50
KRAS G12C, sequence (P01116-2 other isoform, or with tags, fused parts or gaps G12C): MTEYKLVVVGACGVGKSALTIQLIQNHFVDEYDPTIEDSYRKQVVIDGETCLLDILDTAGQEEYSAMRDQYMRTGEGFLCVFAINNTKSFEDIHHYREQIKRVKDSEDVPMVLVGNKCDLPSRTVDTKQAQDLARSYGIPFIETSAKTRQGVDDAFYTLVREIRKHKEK
KRAS G12C, sequence (P62937 whole entry): as the sequence (P62937 whole entry) above
Outline: as §1

KRAS G13D = KRAS G13D (Homo sapiens (Human), UniProt P01116+P62937, G13D); assay: as above; format: biochemical; conditions: read-out: KRAS G13D FRET data IC50
KRAS G13D, sequence (P01116 other isoform, or with tags, fused parts or gaps G13D): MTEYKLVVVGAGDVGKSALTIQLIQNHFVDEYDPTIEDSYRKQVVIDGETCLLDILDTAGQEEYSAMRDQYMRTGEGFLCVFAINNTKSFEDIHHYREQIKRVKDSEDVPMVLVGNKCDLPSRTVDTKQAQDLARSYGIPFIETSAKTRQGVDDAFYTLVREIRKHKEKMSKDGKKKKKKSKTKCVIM
KRAS G13D, sequence (P62937 whole entry): as the sequence (P62937 whole entry) above
Outline: as §1

[1] = system: Capan-1 cells (K-Ras G12V); assay: CellTiter-Glo cell viability, Capan-1; format: cell-based, human; conditions: Homo sapiens, CAPAN-1, 120 h, read-out: Capan-1 Cell Viability IC50
Outline: (§2)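 Compounds were dispensed directly onto seeded cells and incubated until day 5, then plates were equilibrated at room temperature for about 30 min before CellTiter-Glo luminescence readout. Signals were normalized as (sample/average DMSO)×100 and fitted with a four-parameter logistic model.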

[2] = system: NCI-H358 cells (K-Ras G12C); assay: CellTiter-Glo cell viability, NCI-H358; format: cell-based, human; conditions: Homo sapiens, NCI-H358, 120 h, read-out: H358 Cell Viability IC50
Outline: as §2

[3] = system: K-Ras G12C (NCI-H358 cells); assay: Potency assay: pERK in NCI-H358 cells; format: cell-based, human; conditions: Homo sapiens, read-out: pERK EC50 (H358 KRAS G12C)
Outline: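 Cells plated the day before were exposed for 4 h at 37° C, 5% CO2 to a 10-point, 3-fold DMSO dilution series (10 mM top stock), in duplicate. Phospho-ERK was read by AlphaLISA SureFire Ultra or by In-Cell Western with DRAQ5 DNA stain, and IC50 came from a 4-parameter sigmoidal fit.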

Compound | EC50 (AsPC-1 (K-Ras G12D)) [nM] | IC50 (NRAS Q61R) [nM] | IC50 (KRAS Q61H) [nM] | IC50 (KRAS G12D) [nM] | IC50 (KRAS G12V) [nM] | IC50 (NRAS G12C) [nM] | IC50 (NRAS WT) [nM] | IC50 (KRAS G12S) [nM] | IC50 (KRAS G13C) [nM] | IC50 (KRAS WT) [nM] | IC50 (KRAS G12C) [nM] | IC50 (KRAS G13D) [nM] | IC50 ([1]; K-Ras G12V, 5-day treatment) [nM] | IC50 ([2]; K-Ras G12C, 5-day treatment) [nM] | EC50 ([3]; NCI-H358 cells, 4 hours) [nM] | IC50 [1] [nM] | IC50 [2] [nM] | EC50 ([3]; NCI-H358, 4 h) [nM]
CCn1c(-c2cccnc2[C@H](C)OC)c2c3cc(ccc31)-c1cc(O)cc(c1)C[C@H](NC(=O)[C@H](C(C)C)N(C)C(=O)N1CCN(C(=O)[C@H]3CN3)CC1)C(=O)N1CCC[C@H](N1)C(=O)OCC(C)(C)C2 [Example 177, 4-((R)-aziridine-2-carbonyl)-N-((2S)-1-(((6^3S,4S)-1^1-ethyl-2^5-hydroxy-1^2-(2-((S)-1-methoxyethyl)pyridin-3-yl)-10,10-dimethyl-5,7-dioxo-6^1,6^2,6^3,6^4,6^5,6^6-hexahydro-1^1H-8-oxa-1 (5,3)-indola-6 (1,3)-pyridazina-2 (1,3)-benzenacycloundecaphane-4-yl)amino)-3-methyl-1-oxobutan-2-yl)-N-methylpiperazine-1-carboxamide] | < 5000 | – | – | – | – | – | – | – | – | – | – | – | – | – | – | – | – | –
CCn1c(-c2cccnc2[C@H](C)OC)c2c3cc(ccc31)-c1csc(n1)C[C@H](NC(=O)[C@H](C(C)C)N(C)C(=O)N1CCO[C@H](c3ccccc3)C1)C(=O)N1CCC[C@H](N1)C(=O)OCC(C)(C)C2 [Compound A582] | – | 100 to 1000 | 10 to 100 | 100 to 1000 | 100 to 1000 | 10 to 100 | 100 to 1000 | 100 to 1000 | 100 to 1000 | 100 to 1000 | 10 to 100 | 100 to 1000 | 100 to 1000 | 10 to 100 | < 5000 | – | – | –
CCn1c(-c2cccnc2[C@H](C)OC)c2c3cc(ccc31)-c1csc(n1)C[C@H](NC(=O)[C@H](C(C)C)N(C)C(=O)N1C[C@@H]3OCCN(C)[C@H]3C1)C(=O)N1CCC[C@H](N1)C(=O)OCC(C)(C)C2 [Compound A445] | – | 100 to 1000 | 100 to 1000 | 1000 to 10000 | 100 to 1000 | 100 to 1000 | 100 to 1000 | 100 to 1000 | 100 to 1000 | 100 to 1000 | 100 to 1000 | 100 to 1000 | 10 to 100 | 10 to 100 | < 5000 | – | – | –
CCn1c(-c2cccnc2[C@H](C)OC)c2c3cc(ccc31)-c1csc(n1)C[C@H](NC(=O)[C@H](C(C)C)N(C)C(=O)N1C[C@H](N)[C@@H](O)C1)C(=O)N1CCC[C@H](N1)C(=O)OCC(C)(C)C2 [Compound A581] | – | 100 to 1000 | 10 to 100 | 100 to 1000 | 100 to 1000 | 10 to 100 | 100 to 1000 | 100 to 1000 | 100 to 1000 | 100 to 1000 | 10 to 100 | 100 to 1000 | 1000 to 10000 | 100 to 1000 | < 5000 | – | – | –
CCn1c(-c2cccnc2[C@H](C)OC)c2c3cc(ccc31)-c1csc(n1)C[C@H](NC(=O)[C@H](C(C)C)N(C)C(=O)N1C3COCC1C3)C(=O)N1CCC[C@H](N1)C(=O)OCC(C)(C)C2 [Compound A540] | – | 100 to 1000 | 10 to 100 | 1000 to 10000 | 100 to 1000 | 10 to 100 | 100 to 1000 | 100 to 1000 | 100 to 1000 | 100 to 1000 | 10 to 100 | 100 to 1000 | – | – | – | 10 to 100 | 10 to 100 | < 5000
CCn1c(-c2cccnc2[C@H](C)OC)c2c3cc(ccc31)-c1csc(n1)C[C@H](NC(=O)[C@H](C(C)C)N(C)C(=O)N1CCO[C@@H](c3ccccc3)C1)C(=O)N1CCC[C@H](N1)C(=O)OCC(C)(C)C2 [Compound A600] | – | 100 to 1000 | 10 to 100 | 100 to 1000 | 100 to 1000 | 10 to 100 | 10 to 100 | 100 to 1000 | 100 to 1000 | 10 to 100 | 10 to 100 | 100 to 1000 | 100 to 1000 | 100 to 1000 | < 5000 | – | – | –
CCn1c(-c2cccnc2[C@H](C)OC)c2c3cc(ccc31)-c1csc(n1)C[C@H](NC(=O)[C@H](C(C)C)N(C)C(=O)N1CC(S(C)(=O)=O)C1)C(=O)N1CCC[C@H](N1)C(=O)OCC(C)(C)C2 [Compound A383] | – | 100 to 1000 | 10 to 100 | 100 to 1000 | 100 to 1000 | 10 to 100 | 100 to 1000 | 100 to 1000 | 100 to 1000 | 100 to 1000 | 10 to 100 | 100 to 1000 | 10 to 100 | 10 to 100 | < 5000 | – | – | –
